Like-named read-outs stand apart in the source and are kept apart here.
Test system: recombinant HIV-1 viruses (NL4-3, RF, LAI) in MT-2 cells
Experiment: MT-2 cell susceptibility assay of recombinant viruses
Format: cell-based
Experimental: Cells and Viruses. MT-2 cells, HIV-1 RF, HIV1-LAI, and the HIV-1 NL4-3 proviral clones were obtained through the AIDS Research and Reference Reagent Program, National Institutes of Health. MT-2 cells were cultured in RPMI 1640 medium supplemented with 10% fetal bovine serum, 2 mM L-glutamine, and 10 mM Hepes buffer. HIV-1 viruses were generated by transient transfection of the proviral DNA into Human Embryonic Kidney 293 cells using Lipofectamine reagents (Gibco BRL). The viruses were harvested 72 hr post-transfection, amplified in MT-2 cells, and titered in the same cells using a virus yield assay.
Recombinant HIV-1 Variants and Chimeric NL4-3 Proviral Clones. HIV-1 strains with defined substitutions in the protease gene were generated by QuikChange® site-directed mutagenesis as recommended by the manufacturer (Stratagene). Recombinant NL4-3 and LAI proviral clones containing the wild-type and mutant protease genes from RF and clinical isolates were constructed by replacing the SseI/ApaI fragment of pNL4-3 with the appropriate SseI/ApaI protease fragments.
Recombinant viruses (generated separately from those made for PhenoSense assays) were tested in an MT-2 cell susceptibility assay at Bristol Myers Squibb. MT-2 cells were infected with recombinant viruses at a multiplicity of infection (MOI) of 0.005 50% tissue culture infective doses (TCID50)/cell followed by incubation in the presence or absence of serially diluted protease inhibitors for 4 to 7 days. Virus yields were quantified using a RT assay as previously described. The results from at least four independent experiments were used to calculate the EC50.

For `COC(=O)N[C@H](C(=O)N[C@@H](Cc1ccccc1)[C@@H](O)CN(Cc1ccc(-c2ccccn2)cc1)NC(=O)[C@@H](NC(=O)OC)C(C)(C)C)C(C)(C)C` [ATV, atazanavir], the EC50 (Human immunodeficiency virus 1, NL43, MT2, LAI A71V, read-out: ATV phenotype (value before parenthesis, EC50)) was 3.7 ± 0.9 nM, the EC50 (Human immunodeficiency virus 1, NL43, MT2, LAI Control, read-out: ATV phenotype (value before parenthesis, EC50)) was 1.5 ± 0.3 nM and the EC50 (Human immunodeficiency virus 1, NL43, MT2, LAI I50L, read-out: ATV phenotype (value before parenthesis, EC50)) was 8.2 ± 3.4 nM. The EC50 (Human immunodeficiency virus 1, NL43, MT2, NL4-3 020: I50L + M46I, L63P, H69Q, V77I, I93L, read-out: ATV phenotype (value before parenthesis, EC50)) was 1.9 ± 0.5 nM, the EC50 (Human immunodeficiency virus 1, NL43, MT2, NL4-3 100A: I50L + L63P, K70R, A71V, N88S, read-out: ATV phenotype (value before parenthesis, EC50)) was 22.9 ± 6.4 nM and the EC50 (Human immunodeficiency virus 1, NL43, MT2, NL4-3 100B: I50L + L63P, K70R, A71V, G73S, read-out: ATV phenotype (value before parenthesis, EC50)) was 27.8 ± 2.8 nM. The EC50 (Human immunodeficiency virus 1, NL43, MT2, NL4-3 296: I50L + K45R, L63P, A71V, G73S, V77I, I93L, read-out: ATV phenotype (value before parenthesis, EC50)) was 7.1 ± 1.6 nM, the EC50 (Human immunodeficiency virus 1, NL43, MT2, NL4-3 347: I50L + I13V, E35D, M36I, M46L, L63P, A71V, V82A, read-out: ATV phenotype (value before parenthesis, EC50)) was 12.1 ± 1.4 nM and the EC50 (Human immunodeficiency virus 1, NL43, MT2, NL4-3 372: I50L + L10I, L63P, G73S, I93L, read-out: ATV phenotype (value before parenthesis, EC50)) was 9.8 ± 0.7 nM. For the same compound, the EC50 (Human immunodeficiency virus 1, NL43, MT2, NL4-3 398: I50L + E35D, M36L, N37S, R41K, R57K, I62V, L63P, I93L, read-out: ATV phenotype (value before parenthesis, EC50)) was 9 ± 1.5 nM, the EC50 (Human immunodeficiency virus 1, NL43, MT2, NL4-3 450: I50L + L19I, R41K, A71V, T74S, read-out: ATV phenotype (value before parenthesis, EC50)) was 4.4 ± 2.9 nM and the EC50 (Human immunodeficiency virus 1, NL43, MT2, NL4-3 A71V, read-out: ATV phenotype (value before parenthesis, EC50)) was 2.4 ± 0.04 nM. For the same compound, the EC50 (Human immunodeficiency virus 1, NL43, MT2, NL4-3 Control (first group), read-out: ATV phenotype (value before parenthesis, EC50)) was 0.8 ± 0.3 nM, the EC50 (Human immunodeficiency virus 1, NL43, MT2, NL4-3 I50L + A71V, read-out: ATV phenotype (value before parenthesis, EC50)) was 8.6 ± 1.9 nM and the EC50 (Human immunodeficiency virus 1, NL43, MT2, NL4-3 I50L, read-out: ATV phenotype (value before parenthesis, EC50)) was 3.1 ± 1.6 nM. It also gave an EC50 (Human immunodeficiency virus 1, NL43, MT2, RF A71V, read-out: ATV phenotype (value before parenthesis, EC50)) of 0.6 ± 0.2 nM, an EC50 (Human immunodeficiency virus 1, NL43, MT2, RF Control, read-out: ATV phenotype (value before parenthesis, EC50)) of 0.7 ± 0.1 nM and an EC50 (Human immunodeficiency virus 1, NL43, MT2, RF I50L + A71V, read-out: ATV phenotype (value before parenthesis, EC50)) of 4 ± 0.3 nM. The EC50 (Human immunodeficiency virus 1, NL43, MT2, RF I50L, read-out: ATV phenotype (value before parenthesis, EC50)) was 2.2 ± 1.8 nM, the EC50 (Human immunodeficiency virus 1, NL43, MT2, read-out: ATV phenotype (value before parenthesis, EC50), LAI 150L + A71V) was 15.1 ± 4.7 nM and the EC50 (Human immunodeficiency virus 1, NL43, MT2, read-out: ATV phenotype (value before parenthesis, EC50), NL4-3 Control (second group, site-directed mutants)) was 1.5 ± 0.1 nM. For the same compound, the “ATV (Fold Change)” value (LAI 150L + A71V) was 10 Fold Change, the “ATV (Fold Change)” value (LAI A71V) was 2.4 Fold Change and the “ATV (Fold Change)” value (LAI I50L) was 5.4 Fold Change. For the same compound, the “ATV (Fold Change)” value (NL4-3 020: I50L + M46I, L63P, H69Q, V77I, I93L) was 2.5 Fold Change, the “ATV (Fold Change)” value (NL4-3 100A: I50L + L63P, K70R, A71V, N88S) was 31 Fold Change and the “ATV (Fold Change)” value (NL4-3 100B: I50L + L63P, K70R, A71V, G73S) was 37 Fold Change. The “ATV (Fold Change)” value (NL4-3 296: I50L + K45R, L63P, A71V, G73S, V77I, I93L) was 9.5 Fold Change, the “ATV (Fold Change)” value (NL4-3 347: I50L + I13V, E35D, M36I, M46L, L63P, A71V, V82A) was 16 Fold Change and the “ATV (Fold Change)” value (NL4-3 372: I50L + L10I, L63P, G73S, I93L) was 13 Fold Change. The “ATV (Fold Change)” value (NL4-3 398: I50L + E35D, M36L, N37S, R41K, R57K, I62V, L63P, I93L) was 12 Fold Change, the “ATV (Fold Change)” value (NL4-3 450: I50L + L19I, R41K, A71V, T74S) was 5.9 Fold Change and the “ATV (Fold Change)” value (NL4-3 A71V) was 1.6 Fold Change. For the same compound, the “ATV (Fold Change)” value (NL4-3 I50L) was 2.1 Fold Change, the “ATV (Fold Change)” value (NL4-3 I50L + A71V) was 5.9 Fold Change and the “ATV (Fold Change)” value (RF A71V) was 0.9 Fold Change. The “ATV (Fold Change)” value (RF I50L) was 3 Fold Change, the “ATV (Fold Change)” value (RF I50L + A71V) was 5.7 Fold Change and the decrease in susceptibility ({}) was 2.1-5.4 fold.
